“And” between values parts separate entries of the source, which are not always exact repeats. Identical values can stand only once.
Assays:
healthy adults [1] = experiment: Echocardiography (core laboratory) pharmacodynamics, SAD cohorts; type: in vivo, human
Procedure: (§1) For PD assessments of LVEF, echocardiograms for the SAD and MAD cohorts were interpreted by the echocardiography core laboratory and used for all data analysis and dose-level review decisions, and immediate local interpretation of the echocardiograms was performed for safety monitoring. […] Echocardiograms on day 3 (48 hours after dosing) were obtained only if the 24-hour LVEF had not returned to near or above baseline, as determined by the investigator. In the MAD cohorts, echocardiograms were obtained on day -1; predose on day 1; at 1.5 hours postdose on days 2, 4, and 9; and at 1.5, 24, and 72 hours postdose on day 14 (for the 5-mg and 10-mg cohorts) or on day 17 (for the 7.5-mg cohort). Echocardiograms were obtained 3 days after the last dose (on day 17 or 20) only if the participant’s prior LVEF was not near or above baseline, as determined by the investigator.
(§2) Using echocardiography instrumentation certified for clinical use, echocardiographic images were obtained from standard views based on American Society of Echocardiography recommendations for chamber quantification.[19] To obtain the LVEF, the endocardial borders of 3 different cardiac cycles were traced at both end diastole and end systole from the apical 4- and 2-chamber views and LV end-diastolic volume (LVEDV) and LV end-systolic volume (LVESV), calculated using the Simpson’s method of discs algorithm. Ejection fraction was calculated in the standard manner: LVEF = (LVEDV − LVESV)/LVEDV. The intraobserver variability (coefficient of variation) for LVEF was 8%.
(§3) All participants who received ≥1 dose of the study drug and had ≥1 predose and ≥1 postdose echocardiographic measurements were included in the PD analysis set. […] Descriptive statistics of the echocardiographic parameters were generated using SAS, version 9.3 or higher. Dose-response analysis was performed using analysis of covariance to identify the least-squares mean difference (aficamten minus placebo), as described in the Supplemental Appendix. Analyses of concentration “bin” and exposure-response were also performed using analysis of covariance, as described in the Supplemental Appendix. SAS PROC MIXED was used for all comparative analyses.
(§4) Statistical A nalysis of P harmacodynamic (PD) P aram eters
(§5) To analyze the impact of drug dose on echocardiographic parameters in the SAD and MAD
(§6) cohorts, an inferential analysis was conducted on t he PD analysis set using linear mixed models
(§7) for rep eated -measur es an alysis of covarian ce ( AN COVA). The A NCOVA used baseline valu e as
(§8) a covariate, included treatment, time-point, and time-point-by- treatment interaction as fixed
(§9) effects, and ch ange f rom baseline as the d ependent variable. Th e unstructur ed varian ce-
(§10) covarian ce structu re w as used, and the model acco unted for the time- point r epeated m easur es.
(§11) The ANCOVA analysis was conducted separately for each study part and f or each PD p aram eter .
(§12) The least-squares means, the difference in least squares means (active minus placebo), and the
(§13) associated 2-sided 95% CIs were presented for each comparison.
(§14) Concentration bin analysis
(§15) An additional inferential analysis was performed i n the SAD and MAD cohorts , to evaluate the
(§16) analysis set. A concentrat ion bin ANCOVA was conducted using linear mi xed models for
(§17) repeat ed-measures an aly ses with concentr ation bin group as a fix ed ef fect, baseline PD
(§18) parameters as a covari ate, change f rom baseline as the dependent v ariable, and a random
(§19) intercept to adjust for the repeat ed measures. The unstructured variance-co variance structur e was
(§20) used.Plasma concentr ations of aficamten wer e paired with coincident PD parameters. The
(§21) ANCOVA compared the change in PD parameters between each bin versus the pooled placebo
group. The least-squ ares means, the differen ce in l east squares m eans (bin group minus placebo),
and the associat ed 2-sided 95% CIs were pres ented for each comparison. The ANCOVA analysis

healthy adults [2] = experiment: Echocardiography (core laboratory) pharmacodynamics, MAD cohorts; type: in vivo, human
Procedure: The MAD cohorts also used a randomized, double-blind, placebo-controlled, sequential design.
as §1, §2, §3, §4, §5, §6, §7, §8, §9, §10, §11, §12, §13, §14, §15, §16, §17, §18, §19, §20, §21
group. The least-squ ares means, the differen ce in l east squares m eans (bin group minus placebo), […]

[3] = SAD 50 mg (n = 11), […] postdose

Participants with reduction in LVEF to <50% (healthy adults [1]; SAD 50 mg, 2 of 11, core laboratory): 18%
LVEF of the individual participants with LVEF <50% (healthy adults [1]; SAD 50 mg, per core laboratory assessment): 48.2% and 45.5%
Participants with reduction in LVEF to <50% (healthy adults [1]; SAD 75 mg, 1 of 1, core laboratory): 100%
LVEF of the participant (only participant with LVEF <45%) (healthy adults [1]; SAD 75 mg, core laboratory): < 45%
Time for reversal of decreases in LVEF to <50% (healthy adults [1]; following single doses): ≤ 6 h
Time for LVEF to return to baseline (healthy adults [1]; participants whose LVEFs fell below 50%): ≤ 24 h
Time after dosing at which LVEF <50% was noted (healthy adults [1]; single 50 or 75 mg): approximately 1.5 hours
Participants who met the stopping criteria based on echocardiography results (healthy adults [2]; MAD 10 mg once daily for 14 days): 2 participants
Reduction in LVEF to <50% (healthy adults [2]; any of the MAD cohorts, per core laboratory assessment): not observed
SMILES: CCc1nc(-c2ccc3c(c2)CC[C@H]3NC(=O)c2cnn(C)c2)no1 [Aficamten]
Participants with absolute reduction in LVEF of ≥5% from baseline (healthy adults [1]; SAD 1 mg): no participants
Participants with absolute reduction in LVEF of ≥5% from baseline (healthy adults [1]; SAD 3 mg, 1 of 6): 17%
Participants with absolute reduction in LVEF of ≥5% from baseline (healthy adults [1]; SAD 10 mg): no participants
Participants with absolute reduction in LVEF of ≥5% from baseline (healthy adults [1]; SAD 25 mg): no participants
Participants with absolute reduction in LVEF of ≥10% (healthy adults [1]; SAD 40 mg, 1 of 6): 17%
Participants with absolute reduction in LVEF of ≥5% from baseline (healthy adults [1]; SAD 40 mg, 2 of 6): 33%
A (peak A wave velocity), mean (healthy adults [1]; [3]): 54.5 cm/s
A (peak A wave velocity), mean change from baseline (healthy adults [1]; [3]): 2.5 cm/s
E (peak E wave velocity), mean (healthy adults [1]; [3]): 64.0 cm/s
E (peak E wave velocity), mean change from baseline (healthy adults [1]; [3]): -2.7 cm/s
Heart rate, mean (healthy adults [1]; [3]): 62.3 bpm
Heart rate, mean change from baseline (healthy adults [1]; [3]): 0.5 bpm
IVCT, mean (healthy adults [1]; [3]): 42.6 ms
IVCT, mean change from baseline (healthy adults [1]; [3]): 0.4 ms
IVRT, mean (healthy adults [1]; [3]): 69.3 ms
IVRT, mean change from baseline (healthy adults [1]; [3]): 0.5 ms
LAV, mean (healthy adults [1]; [3]): 35.7 mL
LAV, mean change from baseline (healthy adults [1]; [3]): 0.0 mL
LV CO, mean (healthy adults [1]; [3]): 3240 mL
LV CO, mean change from baseline (healthy adults [1]; [3]): -346 mL
LV EDV, mean (healthy adults [1]; [3]): 99.8 mL
LV EDV, mean change from baseline (healthy adults [1]; [3]): 6.6 mL
LV ESV, mean (healthy adults [1]; [3]): 39.7 mL
LV ESV, mean change from baseline (healthy adults [1]; [3]): 8.1 mL
LV ET, mean (healthy adults [1]; [3]): 328 ms
LV SV, mean (healthy adults [1]; [3]): 52.6 mL
LV SV, mean change from baseline (healthy adults [1]; [3]): -6.2 mL
LVEF, mean (healthy adults [1]; [3]): 60.5%
LVEF, mean change from baseline (healthy adults [1]; [3]): -5.8%
e' lateral, mean (healthy adults [1]; [3]): 10.2 cm/s
e' lateral, mean change from baseline (healthy adults [1]; [3]): -1.3 cm/s
Participants with absolute reduction in LVEF of ≥5% from baseline (healthy adults [1]; SAD 50 mg, 7 of 11): 64%
Mean maximum reduction in LVEF from baseline (healthy adults [1]; SAD 50 mg, […] postdose): 5.8%
Reduction in LVEF, placebo corrected least-squares mean difference (healthy adults [1]; SAD 50 mg, […] postdose): 5.5%
Participants with absolute reduction in LVEF of ≥5% from baseline (healthy adults [1]; SAD 75 mg, 1 of 1): 100%
Participants with absolute reduction in LVEF of ≥10% (healthy adults [1]; SAD 75 mg, 1 participant): 100%
Relationship of LVEF to plasma concentration (healthy adults [1]; SAD cohorts, highest concentration bin 122-524 ng/mL P < 0.001, concentration-slope analysis P = 0.003): statistically significant decrease
Participants with absolute reduction in LVEF of ≥5% from baseline (healthy adults [2]; MAD 7.5 mg once daily, 1 of 6): 17%
Participants with absolute reduction in LVEF of ≥10% from baseline (healthy adults [2]; MAD 10 mg once daily): 33%
Participants with reduction in LVEF ≥10% (healthy adults [2]; MAD 10 mg once daily): 2 participants
Placebo-corrected reduction in LVEF (least-squares mean difference) (healthy adults [2]; MAD 10 mg once daily for 14 days, […] postdose on day 14, P = 0.21): 3.2%
Participants with absolute reduction in LVEF of ≥5% from baseline (healthy adults [2]; MAD 10 mg once daily, 2 of 6): 33%
Largest mean reduction in LVEF from baseline (healthy adults [2]; MAD 10 mg, […] postdose on day 14): 5.0%
Suppression of LVEF in most participants (healthy adults [2]; MAD cohorts, plasma concentrations of ≤180 ng/mL): minimal suppression of LVEF
Relationship of LVEF to plasma concentration (healthy adults [2]; MAD cohorts, bin concentration analysis or linear regression analysis): did not reach statistical significance

Reference: publication PMC9436819 (JACC: Basic to Translational Science, 2022)
